These results are taken from ChEMBL document CHEMBL1127773, “Inhibition of steroid 5-reductase by inverted, competitive inhibitors” (Bioorg Med Chem Lett, 1994).

Bounds are passed on as bounds.

The experiment concerns the target T1, 3-oxo-5-alpha-steroid 4-dehydrogenase 2 (Homo sapiens, UniProt P31213).
T1 sequence (P31213 whole entry): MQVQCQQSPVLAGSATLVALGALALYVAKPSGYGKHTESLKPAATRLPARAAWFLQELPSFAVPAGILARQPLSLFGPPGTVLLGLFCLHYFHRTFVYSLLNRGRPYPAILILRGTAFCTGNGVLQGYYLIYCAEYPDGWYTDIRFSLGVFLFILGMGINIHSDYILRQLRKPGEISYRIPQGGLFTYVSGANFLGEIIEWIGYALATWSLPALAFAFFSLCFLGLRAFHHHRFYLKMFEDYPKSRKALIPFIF
Briefly: Inhibitory activity against human prostatic Steroid 5-alpha-reductase.
On to `CN1C(=O)CCC2C3CCC4[C@@H](O)CC[C@]4(C)C3CC[C@@]21C` (stereo partly drawn), for which the concentration for half-maximal inhibition (IC50) is 12 µM. That is a double-digit micromolar value.

For `CCN(CC)C(=O)[C@H]1CC[C@H]2[C@@H]3CC[C@H]4N(C)C(=O)CC[C@]4(C)[C@H]3CC[C@]12C`, half-maximal inhibition (IC50) was put at 0.0086 µM.

Regarding `CC(C)N(C(=O)[C@@H]1CC2CCC3C(CC[C@@]4(C)C3CCC(=O)N4C)[C@@]2(C)C1)C(C)C` (stereo partly drawn), inhibition was half-maximal at 40 µM (IC50).

For the compound `CC(C)N(C(=O)[C@@H]1C[C@@H]2CCC3C4CCC(=O)N(C)[C@@]4(C)CCC3[C@@]2(C)C1)C(C)C` (stereo partly drawn), the IC50 is above 100 µM.

In turn, `CN1C(=O)CC[C@@]2(C)C1CC[C@H]1[C@@H]3CC[C@H](O)[C@@]3(C)CC[C@@H]12` (stereo partly drawn) yielded an IC50 above 0.43 µM.

`CN1C(=O)CCC2C3CC=C4C[C@@H](O)CC[C@]4(C)C3CC[C@@]21C` (stereo partly drawn) returned an IC50 of 32 µM.

In turn, `CN1C(=O)CCC2C3CC[C@H]4C[C@@H](O)CC[C@]4(C)C3CC[C@@]21C` (stereo partly drawn) came in with an IC50 of 4 µM.

Turning to `CN1C(=O)CCC2C3CC[C@H]4CC(=O)CC[C@]4(C)C3CC[C@@]21C` (stereo partly drawn), the IC50 was determined as 15 µM. This IC50 is about 3.8-fold higher than that of the compound before.

By IC50 is commonly meant the concentration that inhibits the measured activity by half.
